Where a SMILES comes first, the peptide text is derived from it. The star is where a group is joined. Biotin = O=C1N[C@H]2[C@H](CS[C@H]2CCCCC(=O)*)N1
How the values were obtained:
SKOV-3 cells = test: Internalization of peptides in SKOV-3 cells, also after sodium chlorate or GAG-specific enzyme pre-treatment; assay type: cell-based, human; conditions: for cellular uptake in SKOV-3 compared to CHO-K1: 1 h at 37° C.; for internalization after chondroitinase ABC (ChABC) treatment: enzyme pre-treatment 2 h; for internalization after heparinases cocktail treatment: heparinases I, II and III pre-treatment 2 h
Procedure: (§1) FIG. 2: Quantification of the internalization of peptides, studied in GAGs-deficient cells CHO-745 (white bar), wild type cells CHO-K1 (light grey bar) and two ovarian adenocarcinoma cells CaOV-3 (dark grey bar) and SKOV-3 (black bar) after 1 h incubation at 37° C. Experiments were done in duplicate or triplicate and repeated at least three times independently. Significance was tested using a student's t-test (NS:p>0.05, *0.05>p>0.01, **0.01>p>0.001, ***0.001>p).
FIG. 4: Quantification of P3 after SKOV-3 pre-treatment with sodium chlorate for 24 h or GAG-specific enzymes for 2 h (a) and P1 after SKOV-3 pre-treatment with GAG-specific enzymes for 2 h (b). Experiments were done in duplicate or triplicate and repeated at least three times independently. Significance was tested using a student's t-test (NS:p>0.05, *0.05>p>0.01, **0.01>p>0.001, ***0.001>p).
(§2) Peptides listed in Table 1 were incubated separately in the following four ovarian cell types which have different GAGs types and expression levels: wild type CHO-K1 (expressing heparan sulfate (HS), chondroitin sulfate A (CSA) and C (CSC)), CHO-pgs A475 (CHO-745) (genetically modified to express only 5-10% HS and CS), two human ovarian adenocarcinoma cells CaOV-3 (overexpressing HS and CSE) and SKOV-3 (overexpressing CSE). Peptides were incubated with one million cells at 37° C. for 1 h.
(§3) Wild type Chinese Hamster Ovary (CHO-K1) cells and GAGs-deficient mutant CHO-745 cells which lack the xylosyltransferase needed for glycosaminoglycan (GAG) synthesis were grown in Dulbecco's modified Eagle's medium F-12 (DMEMF-12) with L-glutamine and 15 mM HEPES. HEK cells and HeLa cells were grown in DMEM with 4.5 g/L D-glucose and pyruvate. Two types of human ovarian cancer cell lines CaOV-3 and SKOV-3 were cultured in DMEM with Glutamax and McCoy's 5A medium, respectively. All complete culture medium was supplemented with 10% fetal bovine serum, penicillin (100,000 IU/L), streptomycin (100 mg/L). Cells were grown in a humidified atmosphere at 37° C. and 5% CO2.
Tested Peptides were incubated separately in the following ovarian cell type: SKOV-3. A pre-treatment with sodium chlorate for 24 h or GAG-specific enzymes for 2 h.
The inventors used different concentrations of chlorate to treat SKOV-3 and analyzed the internalization of P3. […] The inventors also checked that there is no cytotoxicity generated by 100 mM concentration of NaClO3. […] Not merely impairment of sulfation leads to significant P3 internalization decline, enzymatic GAGs degradation might also impact on peptide internalization. They used two specific enzymes: one is the blend of heparinases I, II and III that are extracted from Flavobacterium heparinum and hydrolyze the glycosidic bonds of glucosamine and uronic acids; the other one is chondroitinase ABC (ChABC) lyase purified from Proteus Vulgaris that specifically catalyzes the degradation of chondroitin 4-sulfate, chondroitin 6-sulfate containing (1-4)-β-D-hexosaminyl and (1-3)-β-D-glucuronosyl or (1-3)-α-L-iduronosyl linkages to disaccharides containing 4-deoxy-β-D-gluc-4-enuronosyl groups.

CaOV-3 cells = test: Internalization of peptides in CaOV-3 cells; assay type: cell-based, human; conditions: for internalization efficacy in CaOV-3 compared to CHO-K1 / intracellular concentration of internalized peptide: 1 h at 37° C.; for intracellular concentration of internalized peptide: 1 pmol in 1 million cells taken as 1 μM (1 pL/cell)
Procedure: as §1
(§4) FIG. 3: Quantification of internalization of chimeric peptides P1, P3 and P5 in cells CHO-745 (a,b) and in CaOV-3 cells (c,d). Peptides were incubated with cells for 1 h along with heparin (a) or chondroitin sulfate-E (b). P1 was also incubated with CaOV-3 for 1 h along with heparin (c) and P3 incubated with CaOV-3 in the presence of CS-E (d) at different concentrations. Experiments were done in duplicate or triplicate and repeated at least three times independently.
as §2, §3
(§5) Tested Peptides were incubated separately in the following two ovarian cell types: CHO-745 and CaOV-3. The inventors incubated (7.5 μM) peptides with cells lines for 1 h along with exogenous heparin (HI) or chondroitin-4,6-sulfate (CSE) and quantified the internalized peptides by MS.

[1] = test system: CHO-745, CHO-K1, CaOV-3 and SKOV-3 cells; test: Quantification of internalization of peptides in four cell lines; assay type: cell-based; conditions: CHO-K1 or the two ovarian cancer cells (CaOV-3, SKOV-3) vs CHO-745; 1 h incubation at 37° C.
Procedure: as §1, §2, §3

CHO-745 cells = test: Internalization of peptides in GAGs-deficient cells with exogenous GAGs, quantified by MS; assay type: cell-based, Chinese Hamster; conditions: for cellular quantity of internalized peptide: 7.5 μM peptide
Procedure: as §4
FIG. 5: The effect of heparin favoring P1 internalization can be reversed by addition of heparinase in […].
as §3, §5
P1 was incubated in the CHO-745 ovarian cell type with different concentrations of heparinase. Cells culture are similar to the example 1.

blood cells = test: Hemolysis; assay type: cell-based; conditions: even at 50 μM for 2 h
Procedure: (§6) The inventors tested cytotoxicity and hemolysis activity of the peptides incubated with CHO-K1 cells at different concentrations.

[2] = Binding to chondroitin sulfate-E
[3] = co-incubation with 7.2 μg/ml CSE, 1 h
[4] = co-incubation with 7.2 μg/ml HI, 1 h

Procedure for CHO-K1 cells: as §6

| Molecule | cellular uptake in SKOV-3 compared to CHO-K1 (SKOV-3 cells) | internalization efficacy in CaOV-3 compared to CHO-K1 (CaOV-3 cells) | intracellular concentration of internalized peptide (CaOV-3 cells; CaOV-3) [µM] | internalization compared with CHO-745 cells [1] | cellular quantity of internalized peptide (CHO-745 cells; [3]) | cellular quantity of internalized peptide (CHO-745 cells; [4]) | hemolysis of blood cells (blood cells) | internalization after chondroitinase ABC (ChABC) treatment (SKOV-3 cells; SKOV-3) | internalization after heparinases cocktail treatment (SKOV-3 cells; SKOV-3) | internalization efficacy after sodium chlorate pre-treatment (SKOV-3 cells; SKOV-3, sodium chlorate 24 h, concentration-dependent) | effect of CSE addition on internalization (CaOV-3 cells; CaOV-3, CSE 7.2 μg/ml, 1 h) | effect of CSE addition on internalization (CaOV-3 cells; CaOV-3, CSE concentrations below 3.6 μg/ml, 1 h) | cytotoxicity (CHO-K1 cells) | binding to CSE [2] | effect of HI on relative internalization (CaOV-3 cells; CaOV-3, exogenous heparin, 1 h) | effect of CSE addition on internalization (CHO-745 cells; exogenous CSE, 1 h) | effect of degradation fragments of HI on internalization (CHO-745 cells; heparin degraded by heparinase) | effect of intact HI on internalization (CHO-745 cells; intact heparin) |
| --- | --- | --- | --- | --- | --- | --- | --- | --- | --- | --- | --- | --- | --- | --- | --- | --- | --- | --- |
| Biotin-GGGG-KEDKRPRTAFTAEQL SQIKIWFQNKRAKIKK-NH2 [P5] | apparently increased their cellular uptake | increased their internalization efficacy | 7 | entered significantly more | 2.2 pmol | ~22 pmol | – | – | – | – | – | – | – | – | – | – | – | – |
| SQIKIWFQNKRAKIKK [En2H3, Ac-SQIKIWFQNKRAKIKK-NH2] | – | increased their internalization efficacy | 7 | entered significantly more | – | – | – | – | – | – | – | – | – | – | – | – | – | – |
| CC[C@H](C)[C@H](NC(=O)[C@H](CCCCN)NC(=O)[C@H](C)NC(=O)[C@H](CCCNC(=N)N)NC(=O)[C@H](CCCCN)NC(=O)[C@H](CC(N)=O)NC(=O)[C@H](CCC(N)=O)NC(=O)[C@H](Cc1ccccc1)NC(=O)[C@H](Cc1c[nH]c2ccccc12)NC(=O)[C@@H](NC(=O)[C@H](CCCCN)NC(=O)[C@@H](NC(=O)[C@H](CCC(N)=O)NC(=O)[C@H](CO)NC(=O)[C@H](CC(C)C)NC(=O)[C@H](CCC(N)=O)NC(=O)[C@H](C)NC(=O)[C@H](CCCNC(=N)N)NC(=O)[C@@H](NC(=O)[C@H](Cc1ccccc1)NC(=O)[C@@H](NC(=O)[C@@H](NC(=O)[C@H](CCCNC(=N)N)NC(=O)[C@H](CCC(=O)O)NC(=O)[C@H](CCCNC(=N)N)NC(=O)[C@H](CCCNC(=N)N)NC(=O)[C@H](CCC(N)=O)NC(=O)[C@H](CCCCN)NC(=O)[C@H](CCCNC(=N)N)NC(=O)CNC(=O)CNC(=O)CNC(=O)CNC(=O)CNC(=O)CCCC[C@@H]1SC[C@@H]2NC(=O)N[C@@H]21)[C@@H](C)O)[C@@H](C)O)[C@@H](C)O)[C@@H](C)CC)[C@@H](C)CC)C(=O)N[C@@H](CCCCN)C(=O)N[C@@H](CCCCN)C(N)=O [P3, Biotin-G5-RKQRRERTTFTRAQL SQIKIWFQNKRAKIKK-NH2] (Biotin-GGGGGRKQRRERTTFTRAQLSQIKIWFQNKRAKIKK-NH2) | apparently increased their cellular uptake | increased their internalization efficacy | 24 | entered significantly more | around 6.5 pmol | ~28 pmol | no hemolysis | significantly curtailed internalization | almost no difference | dramatically reduced | evokes P3 internalization | inhibited P3 internalization | not Cytotoxic | – | – | – | – | – |
| CC[C@H](C)[C@H](NC(=O)[C@H](CCCCN)NC(=O)[C@H](C)NC(=O)[C@H](CCCNC(=N)N)NC(=O)[C@H](CCCCN)NC(=O)[C@H](CC(N)=O)NC(=O)[C@H](CCC(N)=O)NC(=O)[C@H](Cc1ccccc1)NC(=O)[C@H](Cc1c[nH]c2ccccc12)NC(=O)[C@@H](NC(=O)[C@H](CCCCN)NC(=O)[C@@H](NC(=O)[C@H](CCC(N)=O)NC(=O)[C@H](CO)NC(=O)[C@H](CCCNC(=N)N)NC(=O)[C@@H]1CCCN1C(=O)[C@H](CCCNC(=N)N)NC(=O)[C@H](CCCCN)NC(=O)[C@H](CC(=O)O)NC(=O)[C@H](CCC(=O)O)NC(=O)[C@H](CCCCN)NC(=O)[C@H](CC(N)=O)NC(=O)[C@@H]1CCCN1C(=O)[C@H](CC(N)=O)NC(=O)[C@H](CCCCN)NC(=O)[C@H](CCCCN)NC(=O)[C@H](CCCCN)NC(=O)[C@@H]1CCCN1C(=O)[C@H](CCCCN)NC(=O)[C@H](CCCNC(=N)N)NC(=O)[C@H](CO)NC(=O)[C@H](CCCNC(=N)N)NC(=O)CNC(=O)CNC(=O)CNC(=O)CNC(=O)CNC(=O)CCCC[C@@H]1SC[C@@H]2NC(=O)N[C@@H]21)[C@@H](C)CC)[C@@H](C)CC)C(=O)N[C@@H](CCCCN)C(=O)N[C@@H](CCCCN)C(N)=O [P1, Biotin-G5-RSRKPKKKNPNKEDKRPR SQIKIWFQNKRAKIKK-NH2] (Biotin-GGGGGRSRKPKKKNPNKEDKRPRSQIKIWFQNKRAKIKK-NH2) | – | increased their internalization efficacy | 7 | entered significantly more | – | around 21 pmol | no hemolysis | decrease | decrease | – | – | – | not Cytotoxic | high binding affinity | favorable effect | made no effect | lost the ability | promoted P1 internalization |

Source: US20240053345A1, “POLYPEPTIDES BINDING SELECTIVELY HEPARIN OR HEPARAN SULFATE GLYCOSAMINOGLYCANS AND CELL-PENETRATING POLYPEPTIDES COMPRISING THE SAME” (SORBONNE UNIVERSITE, priority 2020, published 2024)
